Patent US9279811B2, “Methods and kits that identify tumors responsive to Src inhibitors” (OREGON HEALTH & SCIENCE UNIVERSITY, priority 2011, dated 2016)

Assays:
Type in all cases: cell-based, human
[1] = system: SN12C VHL WT; assay: Cell cycle analysis of HIF-α mutant cell lines, SN12C, VHL WT; conditions: 48 hours post treatment
Method: (§1) Transduction of empty retroviral vector (pBabe) served as a negative control.
(§2) Flow Cytometry: Cells were plated at a density such that they were no more than 70% confluent on the day of analysis. […] For propidium iodide staining, cells were trypsinized, collected by centrifugation and washed in PBS prior to fixing in 70% v/v ethanol. Ethanol was removed by washing in PBS. Cells were incubated with 100 μg/ml RNase A (Sigma) for 5 minutes and stained with 50 μg/ml PI for 30 minutes. […] Cells were stained with fluorescein isothiocyanate (FITC)-conjugated anti-BrdU antibodies (BD Biosciences) according to the manufacturer's instructions. Following multiple washes in blocking solution and PBS, cells were stained with 5 μg/ml PI for 30 minutes. The PI or BrdU/PI-stained samples were analyzed by an LSR® FACS (Becton Dickinson) and the cell cycle profile was analyzed with the FlowJo® software (Tree Star Inc.). Phosphoprotein flow cytometry analysis was performed as previously described in Shah N P et al, Cell 14, 485 (2008), incorporated by reference herein.

[2] = system: ACHN shVHL cells; assay: Cell cycle analysis by flow cytometry (PI staining), ACHN shVHL
Method: as §1, §2

[3] = system: SN12C cells expressing constitutively stable HIF-2α-P405A, P853A; assay: Cell cycle analysis of HIF-α mutant cell lines, SN12C HIF-2α; conditions: 48 hours post treatment
Method: as §1, §2

[4] = system: ACHN cells expressing constitutively stable HIF-2α-P405A, P853A; assay: Cell cycle analysis of HIF-α mutant cell lines, ACHN HIF-2α; conditions: 48 hours post treatment
Method: as §1, §2

[5] = system: SN12C VHL WT cells; assay: Cell cycle analysis by flow cytometry (PI staining), SN12C VHL WT
Method: as §1, §2

[6] = system: ACHN VHL WT cells; assay: Cell cycle analysis by flow cytometry (PI staining), ACHN VHL WT
Method: as §1, §2

[7] = system: SN12C shVHL cells; assay: Cell cycle analysis by flow cytometry (PI staining), SN12C shVHL
Method: as §1, §2

[8] = system: ACHN VHL WT; assay: Cell cycle analysis of HIF-α mutant cell lines, ACHN, VHL WT; conditions: 48 hours post treatment
Method: as §1, §2

[9] = system: SN12C-shVHL cells; assay: Cell proliferation assay (cell count), SN12C-shVHL
Source text: (§3) Cells were split to sustain log phase growth.

[10] = system: VHL-WT SN12C cells; assay: Cell proliferation assay (cell count), SN12C
Source text: as §3

`Cc1nc(Nc2ncc(C(=O)Nc3c(C)cccc3Cl)s2)cc(N2CCN(CCO)CC2)n1` [dasatinib] was tested, and the “Cell population (%) in G1” value ([1]; dasatinib 25 nM) was 60.1%, the “Cell population (%) in G2/M” value ([1]; dasatinib 25 nM) was 13.3% and the “Cell population (%) in S” value ([1]; dasatinib 25 nM) was 25.1%. The “Cell population (%) in G1” value ([1]; dasatinib 50 nM) was 59.2%, the “Cell population (%) in G2/M” value ([1]; dasatinib 50 nM) was 11.4% and the “Cell population (%) in S” value ([1]; dasatinib 50 nM) was 27.6%. The “Cell population (%) in G1” value ([1]; dasatinib 100 nM) was 60.4%, the “Cell population (%) in G2/M” value ([1]; dasatinib 100 nM) was 11.1% and the “Cell population (%) in S” value ([1]; dasatinib 100 nM) was 26.5%. The “Cell population (%) in G1” value ([2]; dasatinib 25 nM) was 50.2%, the “Cell population (%) in G2/M” value ([2]; dasatinib 25 nM) was 9.8% and the “Cell population (%) in S” value ([2]; dasatinib 25 nM) was 37.4%. For the same molecule, the “Cell population (%) in G1” value ([2]; dasatinib 50 nM) was 47.6%, the “Cell population (%) in G2/M” value ([2]; dasatinib 50 nM) was 14.2% and the “Cell population (%) in S” value ([2]; dasatinib 50 nM) was 36.7%. The “Cell population (%) in G1” value ([2]; dasatinib 100 nM) was 46.1%, the “Cell population (%) in G2/M” value ([2]; dasatinib 100 nM) was 10.9% and the “Cell population (%) in S” value ([2]; dasatinib 100 nM) was 40.8%. The “Cell population (%) in G1” value ([3]; dasatinib 25 nM) was 54.8%, the “Cell population (%) in G2/M” value ([3]; dasatinib 25 nM) was 20.6% and the “Cell population (%) in S” value ([3]; dasatinib 25 nM) was 23.6%. The “Cell population (%) in G1” value ([3]; dasatinib 50 nM) was 55.7%, the “Cell population (%) in G2/M” value ([3]; dasatinib 50 nM) was 22.1% and the “Cell population (%) in S” value ([3]; dasatinib 50 nM) was 21.4%. For the same molecule, the “Cell population (%) in G1” value ([3]; dasatinib 100 nM) was 49.7%, the “Cell population (%) in G2/M” value ([3]; dasatinib 100 nM) was 21.3% and the “Cell population (%) in S” value ([3]; dasatinib 100 nM) was 27.8%. The “Cell population (%) in G1” value ([4]; dasatinib 25 nM) was 53.9%, the “Cell population (%) in G2/M” value ([4]; dasatinib 25 nM) was 16.1% and the “Cell population (%) in S” value ([4]; dasatinib 25 nM) was 27.7%. The “Cell population (%) in G1” value ([4]; dasatinib 50 nM) was 51.9%, the “Cell population (%) in G2/M” value ([4]; dasatinib 50 nM) was 19.3% and the “Cell population (%) in S” value ([4]; dasatinib 50 nM) was 27.0%. The “Cell population (%) in G1” value ([4]; dasatinib 100 nM) was 55.3%, the “Cell population (%) in G2/M” value ([4]; dasatinib 100 nM) was 17.7% and the “Cell population (%) in S” value ([4]; dasatinib 100 nM) was 24.2%. The “Cell population (%) in G1” value ([5]; dasatinib 25 nM) was 59.5%, the “Cell population (%) in G2/M” value ([5]; dasatinib 25 nM) was 15.0% and the “Cell population (%) in S” value ([5]; dasatinib 25 nM) was 23.9%. For the same molecule, the “Cell population (%) in G1” value ([5]; dasatinib 50 nM) was 63.6%, the “Cell population (%) in G2/M” value ([5]; dasatinib 50 nM) was 11.7% and the “Cell population (%) in S” value ([5]; dasatinib 50 nM) was 22.8%. For the same molecule, the “Cell population (%) in G1” value ([5]; dasatinib 100 nM) was 70.0%, the “Cell population (%) in G2/M” value ([5]; dasatinib 100 nM) was 11.7% and the “Cell population (%) in S” value ([5]; dasatinib 100 nM) was 16.3%. The “Cell population (%) in G1” value ([6]; dasatinib 25 nM) was 59.7%, the “Cell population (%) in G2/M” value ([6]; dasatinib 25 nM) was 12.6% and the “Cell population (%) in S” value ([6]; dasatinib 25 nM) was 25.8%. The “Cell population (%) in G1” value ([6]; dasatinib 50 nM) was 62.1%, the “Cell population (%) in G2/M” value ([6]; dasatinib 50 nM) was 16.0% and the “Cell population (%) in S” value ([6]; dasatinib 50 nM) was 17.6%. The “Cell population (%) in G1” value ([6]; dasatinib 100 nM) was 64.5%, the “Cell population (%) in G2/M” value ([6]; dasatinib 100 nM) was 14.9% and the “Cell population (%) in S” value ([6]; dasatinib 100 nM) was 15.7%. For the same molecule, the “Cell population (%) in G1” value ([7]; dasatinib 25 nM) was 45.2%, the “Cell population (%) in G2/M” value ([7]; dasatinib 25 nM) was 17.5% and the “Cell population (%) in S” value ([7]; dasatinib 25 nM) was 36.9%. The “Cell population (%) in G1” value ([7]; dasatinib 50 nM) was 45.4%, the “Cell population (%) in G2/M” value ([7]; dasatinib 50 nM) was 15.7% and the “Cell population (%) in S” value ([7]; dasatinib 50 nM) was 38.5%. The “Cell population (%) in G1” value ([7]; dasatinib 100 nM) was 46.1%, the “Cell population (%) in G2/M” value ([7]; dasatinib 100 nM) was 18.5% and the “Cell population (%) in S” value ([7]; dasatinib 100 nM) was 35.3%. For the same molecule, the “Cell population (%) in G1” value ([8]; dasatinib 25 nM) was 59.2%, the “Cell population (%) in G2/M” value ([8]; dasatinib 25 nM) was 17.1% and the “Cell population (%) in S” value ([8]; dasatinib 25 nM) was 21.6%. For the same molecule, the “Cell population (%) in G1” value ([8]; dasatinib 50 nM) was 56.4%, the “Cell population (%) in G2/M” value ([8]; dasatinib 50 nM) was 16.0% and the “Cell population (%) in S” value ([8]; dasatinib 50 nM) was 25.1%. The “Cell population (%) in G1” value ([8]; dasatinib 100 nM) was 60.1%, the “Cell population (%) in G2/M” value ([8]; dasatinib 100 nM) was 22.0% and the “Cell population (%) in S” value ([8]; dasatinib 100 nM) was 17.6%.

With `Cc1ccc(NC(=O)c2ccc(CN3CCN(C)CC3)cc2)cc1Nc1nccc(-c2cccnc2)n1` [imatinib] the effect on proliferation [9] was “had no effect on the proliferation” and the effect on proliferation [10] was “had no effect on the proliferation”.
